Assay results from patent US9447108B2 (SZEGEDI TUDOMÁNYEGYETEM, priority 2013, dated 2016).
Like-named read-outs stand apart in the source and are kept apart here.

What was measured:
δ-opioid receptors = molecular target: T1, δ-opioid receptors (Rattus norvegicus, UniProt P33533); assay: Receptor binding assay, [3H]Ile5,6-deltorphin-2 displacement in rat brain membranes
T1 construct: A crude membrane fraction was prepared from Wistar rat brains and spinal cords; from tissue; host or cells: Wistar rat brain (without cerebellum), crude membrane fraction

rats = assay: Behavioral nociceptive testing, paw-withdrawal test (PWD), heat pain threshold; assay type: in vivo, rat; conditions: for antinociception, potency and dose dependence: s.c., 0.3-10 mg/kg
Protocol: The paw-withdrawal test (PWD) was used to measure the heat pain threshold after the treatments. A detailed description of this model was published by Hargreaves et al. (Hargreaves, K.; Dubner, R.; Brown, F.; Flores, C.; Joris, J. Pain; 32, 77 1988). Briefly, rats were placed on a glass surface in a plastic chamber and were allowed to acclimatize to their environment for 15-30 min before testing. The baseline hind paw-withdrawal latencies (baseline values at 0 min determined two times) were then obtained. A heat stimulus was directed onto the plantar surface of each hind paw and the intensity of the thermal stimulus was adjusted to derive an average baseline latency of approximately 10 s (cut-off time 20 s). Then the animals were treated subcutaneously with different doses of ligands (0.3-10 mg/kg). The nociceptive threshold was determined at 15-min intervals for 120 min.
Data are presented as means±SEM. The mean of the two sides and the mean of two time points (15-30; 45-60; 75-90 and […]) were evaluated. The results were analyzed using a two-way ANOVA (ANalysis Of VAriances) (factors: treatment and time with repeated measurements). Subsequent analysis was performed using Fisher-LSD test. A p-value less than 0.05 was considered significant. Data were analyzed using […] 7.1. software (Statsoft Inc., Tulsa, Okla.).

μ-opioid receptors = molecular target: T2, μ-opioid receptors (Rattus norvegicus, UniProt P33535); assay: Receptor binding assay, [3H]DAMGO displacement in rat brain membranes; conditions: for Ki^δ/Ki^μ: selectivity ratio δ/μ
T2 construct: A crude membrane fraction was prepared from Wistar rat brains and spinal cords; from tissue; host or cells: Wistar rat brain (without cerebellum), crude membrane fraction

[1] = 10 mg/kg s.c., 0 min (baseline)

T1 sequence (P33533 whole entry): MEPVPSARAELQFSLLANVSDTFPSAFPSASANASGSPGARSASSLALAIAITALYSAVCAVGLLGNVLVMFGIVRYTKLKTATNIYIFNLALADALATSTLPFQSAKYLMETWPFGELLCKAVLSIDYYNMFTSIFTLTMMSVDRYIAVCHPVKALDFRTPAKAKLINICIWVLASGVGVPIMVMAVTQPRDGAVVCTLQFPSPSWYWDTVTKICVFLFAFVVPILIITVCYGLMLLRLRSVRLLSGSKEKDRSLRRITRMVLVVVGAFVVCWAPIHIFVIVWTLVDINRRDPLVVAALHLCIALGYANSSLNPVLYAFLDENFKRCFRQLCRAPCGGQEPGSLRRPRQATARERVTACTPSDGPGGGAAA
T2 sequence (P33535 whole entry): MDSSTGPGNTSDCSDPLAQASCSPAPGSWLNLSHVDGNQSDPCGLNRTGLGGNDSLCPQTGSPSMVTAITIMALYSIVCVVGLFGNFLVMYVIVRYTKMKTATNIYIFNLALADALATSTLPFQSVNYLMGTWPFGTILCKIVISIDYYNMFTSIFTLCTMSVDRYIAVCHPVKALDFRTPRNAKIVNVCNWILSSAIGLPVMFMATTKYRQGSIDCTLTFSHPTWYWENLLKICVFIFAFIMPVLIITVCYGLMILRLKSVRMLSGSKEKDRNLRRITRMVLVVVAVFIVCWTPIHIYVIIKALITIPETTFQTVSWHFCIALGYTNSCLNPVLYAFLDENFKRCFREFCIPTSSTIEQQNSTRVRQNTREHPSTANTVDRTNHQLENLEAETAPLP

| Compound | Time course of the antinociceptive effects (paw-withdrawal latency) (rats; 3 mg/kg s.c., 0 min (baseline)) [s] | Time course of the antinociceptive effects (paw-withdrawal latency) (rats; 3 mg/kg s.c., 30 min) [s] | Time course of the antinociceptive effects (paw-withdrawal latency) (rats; 3 mg/kg s.c., 60 min) [s] | Time course of the antinociceptive effects (paw-withdrawal latency) (rats; 3 mg/kg s.c., 90 min) [s] | Time course of the antinociceptive effects (paw-withdrawal latency) (rats; 3 mg/kg s.c., 120 min) [s] | Time course of the antinociceptive effects (paw-withdrawal latency) (rats; [1]) [s] | Time course of the antinociceptive effects (paw-withdrawal latency) (rats; 10 mg/kg s.c., 30 min) [s] | Time course of the antinociceptive effects (paw-withdrawal latency) (rats; 10 mg/kg s.c., 60 min) [s] | Time course of the antinociceptive effects (paw-withdrawal latency) (rats; 10 mg/kg s.c., 90 min) [s] | Time course of the antinociceptive effects (paw-withdrawal latency) (rats; 10 mg/kg s.c., 120 min) [s] | antinociception, potency and dose dependence (rats; in words) | other results |
| --- | --- | --- | --- | --- | --- | --- | --- | --- | --- | --- | --- | --- |
| COc1ccc2c3c1O[C@H]1[C@@H](O)CC[C@H]4[C@@H](C2)N(C)CC[C@@]341 [Dihydrocodeine] | 10.1 | 11.1 | 10.7 | 10.5 | 10.3 | 9.9 | 13.4 | 13.6 | 10.9 | 9.8 |  | Ki (δ-opioid receptors): > 10 µM; Ki (μ-opioid receptors): 0.122 ± 0.015 µM |
| CCOc1ccc2c3c1O[C@H]1[C@@H](O)CC[C@H]4[C@@H](C2)N(C)CC[C@@]341 [Dihydroethylmorphine] | 10.1 | 11.3 | 10.9 | 10.2 | 9.9 | 10.2 | 11.5 | 12.3 | 12.0 | 10.4 |  |  |
| CC(=O)Oc1ccc2c3c1O[C@H]1[C@@H](OC(C)=O)CC[C@H]4[C@@H](C2)N(C)CC[C@@]341 [Dihydroheroine] | 10.1 | 17.3 | 15.6 | 12.9 | 10.7 |  |  |  |  |  |  |  |
| CN1CC[C@]23c4c5ccc(O)c4O[C@H]2[C@@H](O)CC[C@H]3[C@H]1C5 [Dihydromorphine] | 10.2 | 13.1 | 13.9 | 14.1 | 13.3 | 10.1 | 19.4 | 20.6 | 15.3 | 14.1 |  |  |
| [2H][C@@H]1[C@H]([2H])[C@H]2[C@H]3Cc4ccc(O)c5c4[C@@]2(CCN3C)[C@@H](O5)[C@H]1O [Example 1, (5α,6α,7β,8β)-3,6-dihydroxy-4,5-epoxy-17-methyl-(7,8-^2H2)-morphinan] | 10.1 | 14.1 | 14.9 | 14.9 | 14.1 | 9.8 | 21.3 | 22.1 | 16.8 | 16.1 | more potent | antinociceptive effect at 3 mg/kg, efficacy compared to morphine (rats; 3 mg/kg s.c., in words): more effective than morphine; duration of antinociceptive effect compared to other drugs (rats; 3 mg/kg s.c., in words): more prolonged effects compared to other drugs |
| [2H][C@@H]1[C@H]([2H])[C@H]2[C@H]3Cc4ccc(OC)c5c4[C@@]2(CCN3C)[C@@H](O5)[C@H]1O [Example 2, (5α,6α,7β,8β)-4,5-epoxy-6-hydroxy-3-methoxy-17-methyl-(7,8-^2H2)-morphinan] | 9.9 | 12.1 | 11.9 | 11.7 | 11.8 | 10.1 | 14.2 | 14.8 | 14.9 | 14.1 | lower potency | Ki (δ-opioid receptors): > 10 µM; antinociceptive effect compared to non-deuterated analogues (rats; 10 mg/kg s.c., in words): increased and prolonged the effect; Ki (μ-opioid receptors): 0.0341 ± 0.00108 µM; affinity to μ-opioid receptors compared to the corresponding hydrogenated derivative (μ-opioid receptors; in words): higher affinity to μ-opioid receptors than the corresponding hydrogenated derivatives |
| [2H][C@@H]1[C@H]([2H])[C@H]2[C@H]3Cc4ccc(OC(C)=O)c5c4[C@@]2(CCN3C)[C@@H](O5)[C@H]1OC(C)=O [Example 4, (5α,6α,7β,8β)-3,6-diacetoxy-4,5-epoxy-17-methyl-(7,8-^2H2)-morphinan] | 9.7 | 19.7 | 17.9 | 14.3 | 11.4 |  |  |  |  |  | more potent | Ki (δ-opioid receptors): 0.211 ± 0.024 µM; duration of antinociceptive effect compared to other drugs (rats; 3 mg/kg s.c., in words): more prolonged effects compared to other drugs; Ki (μ-opioid receptors): 0.00289 ± 0.0007 µM; affinity to μ-opioid receptors compared to morphine (μ-opioid receptors; in words): higher affinity to μ-opioid receptors than the morphine; Ki^δ/Ki^μ (μ-opioid receptors): 73 |
| [2H][C@H]1C(=O)[C@@H]2Oc3c(OC)ccc4c3[C@@]23CCN(C)[C@H](C4)[C@]3(O)[C@H]1[2H] [Example 5, (5α,7β,8β,14β)-4,5-epoxy-14-hydroxy-3-methoxy-17-methyl-(7,8-^2H2)-morphinan-6-one] | 9.9 | 13.3 | 13.7 | 13.6 | 12.1 |  |  |  |  |  |  |  |
| CN1CC[C@]23c4c5ccc(O)c4O[C@H]2[C@@H](O)C=C[C@H]3[C@H]1C5 [Morphine] | 10.1 | 14.4 | 13.9 | 13.2 | 12.8 | 9.9 | 18.2 | 18.8 | 14.4 | 10.5 |  |  |
| COc1ccc2c3c1O[C@H]1C(=O)CC[C@@]4(O)[C@@H](C2)N(C)CC[C@]314 [Oxycodone] | 9.8 | 12.2 | 12.6 | 11.9 | 10.6 |  |  |  |  |  |  |  |
| (5α,6α,7β,8β)-4,5-epoxy-3-ethoxy-6-hydroxy-17-methyl-(7,8-^2H2)-morphinan [Example 3] | 10.0 | 12.2 | 11.6 | 11.4 | 11.1 | 10.1 | 12.1 | 13.1 | 12.9 | 11.1 | lower potency | Ki (δ-opioid receptors; [3H]Ile5,6-deltorphin-2, rat brain membranes, read-out: Ki^δ): 6.12 ± 0.845 µM; antinociceptive effect compared to non-deuterated analogues (rats; 10 mg/kg s.c., in words): increased and prolonged the effect; Ki (μ-opioid receptors; [3H]DAMGO, rat brain membranes, read-out: Ki^μ): 0.205 ± 0.0631 µM; Ki^δ/Ki^μ (μ-opioid receptors): 30 |
